Data reported in patent publication US9220799B2, “Bactericidal agent composition” (SUNSTAR ENGINEERING INC., priority 2012, dated 2015).

Legend:
[1] = tested on: Streptococcus mutans (ATCC25175) biofilm; experiment: Bactericidal effect on cariogenic bacteria-formed biofilms, surviving cells in the biofilm; format: cell-based; details: Example 3, 37°C, 20 min
Experimental: Either water containing oxygen-filled ultrafine bubbles prepared as described above or purified water was used to dilute povidone iodine to condition the same to 1.0 mg/mL and 10 mg/mL.
Streptococcus mutans (ATCC25175) was grown in a Tryptic soy Broth supplemented with 0.5% yeast extract (the resulting medium is hereinafter referred to as TSBY medium) at 37° C. until the OD660 was between 0.6 and 0.8 (10^8 cells/mL); the product was used as a test bacterial liquid.
A TSBY medium (plus 1% sucrose) placed in a test tube in a volume of 4950 μL was inoculated with 50 μL of the test bacterial liquid and was cultured at 37° C. for 18 hours to form a biofilm.
From the test tube in which the biofilm was formed, the culture broth was removed by means of an aspirator and the biofilm was washed with 5 mL of an added PBS. After removing the PBS, 5 mL of the test liquid was treated for reaction as it was shaken with a shaking machine (37° C.×20 min). After the 20-min reaction, 5 mL of 0.4% (w/v) sodium thiosulfate in solution was added into the test tube so as to inactivate the bactericidal agent. Using a sonicator, the biofilm was detached from the inner surfaces of the test tube and dispersed with a vortex mixer thereby prepare a sample liquid for cell count; the number of surviving cells in the biofilm was then counted.
The sample liquids for cell count were diluted with a buffer solution; after culture in an MS agar medium (37° C.×36-48 hours), the number of colonies formed was counted to determine the number of surviving cells in the biofilms.
To obtain those results, the test was replicated in 5 runs (n=5).

[2] = tested on: Pseudomonas aeruginosa NBRC13275; experiment: Bactericidal test on carriers with adhered Pseudomonas aeruginosa and dried organic substance (AOAC Official Method 964.02), surviving cell count; Examples 1, 4, 5; format: cell-based
Experimental: The test was conducted in accordance with AOAC Official Method 964.02 Testing Disinfectants against Pseudomonas aeruginosa.
The water prepared as described above to contain oxygen-filled ultrafine bubbles or the purified water of the Japanese Pharmacopoeia was used to dilute povidone iodine such that it was conditioned to 100 mg/L.
A cryopreserved bacterial strain (Pseudomonas aeruginosa NBRC13275) was grown in a tryptic soy agar (Difco; hereinafter referred to as TSA medium) at 36±1° C. for 18-24 hours. The grown cells were transplanted into a tryptic soy broth (Difco; hereinafter referred to as TSB medium) where they were cultured at 36±1° C. for 18-24 hours. The liquids of the thus cultured cells were conditioned with a TSB medium to an approximate value of 10^6 CFU/mL and the resulting liquids were used as test bacterial liquids.
A sterile bioassay cup (stainless steel Penicillin Cup 441-01 made by Sogo Rikagagu glass; hereinafter designated as a carrier) was placed in a 100-mL beaker, into which test bacterial liquids were poured in such amounts that the carrier would be completely immersed (ca. 30-40 mL). After allowing the beaker to stand for 10-15 minutes, the carrier was transferred onto a Petri dish with sterile filter paper spread on the bottom and by allowing the Petri dish to stand at 36±1° C. for 40±2 minutes, the bacterial cells and the organic substance derived from the mediums were dried and adhered to the carrier.
The test liquids preliminarily held at 25±2° C. were each dispensed in 10 mL into centrifugal tubes having a capacity of 50 mL; using a hook of platinum wire, the carriers to which the test bacterium adhered were put into the centrifugal tubes, one for each, and allowed to act at 25±2° C. for 20 minutes. Thereafter, the carriers were transferred into centrifugal tubes containing 10 mL of an inactivator SCDLP medium (Eiken Chemical Co., Ltd.), one for each, so as to inactivate the bactericidal component in the test liquid adhering to the carrier. The carriers were then treated with a sonicator at 20±2° C. for 5 minutes to wash off the test bacterium; the test liquids were agitated for an additional minute with a vortex mixer to prepare sample liquids for cell count and the number of surviving cells was counted. A control was prepared by the same procedure as described above, except that the test liquids were replaced by sterile physiological saline.
The sample liquids for cell count (stock liquids) were serially diluted 10-fold with sterile physiological saline; the sample liquids or the series of dilutions, each weighing a volume of 1 mL, were transferred aseptically into Petri dishes and, after mixing with 20 mL of a TSA medium, they were solidified and cultured at 36±1° C. for 48 hours. Thereafter, colonies growing on the medium were counted to determine the number of surviving cells per carrier (lower limit for quantification: 10 CFU/carrier).
To obtain those results, the test was replicated in five runs (n=5) and after eliminating minimum and maximum values, an averaged cell count for n=3 was indicated as a logarithmic value.
An experiment was conducted by the same method as in Example 1, except for the following points: water containing oxygen-filled ultrafine bubbles prepared as described above or purified water was used to dilute povidone iodine such that it was conditioned to 100 mg/L; in addition, the most frequent particle density of the water containing ultrafine bubbles were adjusted to orders of 10^4, 10^5, 10^6, and 10^8 per mL.
An experiment was conducted by the same method as in Example 1, except that water containing atmospheric air- or C3F8-filled ultrafine bubbles prepared as described above or purified water was used to dilute povidone iodine such that it was conditioned to 100 mg/L.

[3] = povidone iodine concentration 1 (table head mg/L; text 1.0 mg/mL) conditioned with water (purified water)
[4] = povidone iodine concentration 1 (table head mg/L; text 1.0 mg/mL) conditioned with water containing oxygen-filled ultrafine bubbles (100 nm; 2.0x10^7, total 1.6x10^9 particles/ml)
[5] = povidone iodine concentration 10 (table head mg/L; text 10 mg/mL) conditioned with water (purified water)
[6] = povidone iodine concentration 10 (table head mg/L; text 10 mg/mL) conditioned with water containing oxygen-filled ultrafine bubbles (100 nm; 2.0x10^7, total 1.6x10^9 particles/ml)
[7] = Example 1, povidone iodine 100 mg/L conditioned with water (purified water), 25°C, 20 min
[8] = Example 1, povidone iodine 100 mg/L conditioned with water containing oxygen-filled ultrafine bubbles (91 nm; 3.1x10^8, total 2.3x10^10 particles/ml), 25°C, 20 min
[9] = Example 4, povidone iodine 100 mg/L conditioned with water (purified water)
[10] = Example 4, povidone iodine 100 mg/L, water containing oxygen-filled ultrafine bubbles, 81 nm, most frequent particle density 7.2 × 10^4, total 4.2 × 10^6 particles/ml
[11] = Example 4, povidone iodine 100 mg/L, water containing oxygen-filled ultrafine bubbles, 81 nm, most frequent particle density 7.2 × 10^5, total 4.2 × 10^7 particles/ml
[12] = Example 4, povidone iodine 100 mg/L, water containing oxygen-filled ultrafine bubbles, 81 nm, most frequent particle density 7.2 × 10^6, total 4.2 × 10^8 particles/ml
[13] = Example 4, povidone iodine 100 mg/L, water containing oxygen-filled ultrafine bubbles, 81 nm, most frequent particle density 7.2 × 10^8, total 4.2 × 10^10 particles/ml
[14] = Example 5, povidone iodine 100 mg/L conditioned with water (purified water)
[15] = Example 5, povidone iodine 100 mg/L, water containing C3F8-filled ultrafine bubbles (76 nm; 2.7x10^8, total 1.3x10^10 particles/ml)
[16] = Example 5, povidone iodine 100 mg/L, water containing atmospheric air-filled ultrafine bubbles (75 nm; 5.7x10^8, total 4.6x10^10 particles/ml)

## povidone iodine
[1]; [3]
  Cell count CFU average: 616.6 CFU
  Cell count CFU n1: 612 CFU
  Cell count CFU n2: 439 CFU
  Cell count CFU n3: 1050 CFU
  Cell count CFU n4: 386 CFU
  Cell count CFU n5: 596 CFU
[1]; [4]
  Cell count CFU average: 149.2 CFU
  Cell count CFU n1: 250 CFU
  Cell count CFU n2: 35 CFU
  Cell count CFU n3: 178 CFU
  Cell count CFU n4: 150 CFU
  Cell count CFU n5: 133 CFU
[1]; [5]
  Cell count CFU average: 9.2 CFU
  Cell count CFU n1: 9 CFU
  Cell count CFU n2: 22 CFU
  Cell count CFU n3: 13 CFU
  Cell count CFU n4: 0 CFU
  Cell count CFU n5: 2 CFU
[1]; [6]
  Cell count CFU average: 0 CFU
  Cell count CFU n1: 0 CFU
  Cell count CFU n2: 0 CFU
  Cell count CFU n3: 0 CFU
  Cell count CFU n4: 0 CFU
  Cell count CFU n5: 0 CFU
[2]; [7]
  Cell count CFU/carrier average: 8000 CFU/carrier
  Cell count CFU/carrier n1: 23000 CFU/carrier
  Cell count CFU/carrier n2: 19000 CFU/carrier
  Cell count CFU/carrier n3: 26000 CFU/carrier
  log value (averaged surviving cell count as logarithmic value): 3.9
[2]; [8]
  Cell count CFU/carrier average: 23 CFU/carrier
  Cell count CFU/carrier n1: 10 CFU/carrier
  Cell count CFU/carrier n2: 10 CFU/carrier
  Cell count CFU/carrier n3: 50 CFU/carrier
  log value (averaged surviving cell count as logarithmic value): 1.4
[2]; [9]
  Cell count CFU/carrier average: 44000 CFU/carrier
  Cell count CFU/carrier n1: 46000 CFU/carrier
  Cell count CFU/carrier n2: 47000 CFU/carrier
  Cell count CFU/carrier n3: 39000 CFU/carrier
  Log value: 4.6
[2]; [10]
  Cell count CFU/carrier average: 5300 CFU/carrier
  Cell count CFU/carrier n1: 5900 CFU/carrier
  Cell count CFU/carrier n2: 2200 CFU/carrier
  Cell count CFU/carrier n3: 7700 CFU/carrier
  Log value: 3.7
  Observed bactericidal efficacy: Δ
[2]; [11]
  Cell count CFU/carrier average: <10 CFU/carrier
  Cell count CFU/carrier n1: 4200 CFU/carrier
  Cell count CFU/carrier n2: <10 CFU/carrier
  Cell count CFU/carrier n3: <10 CFU/carrier
  Log value: 3.1
  Observed bactericidal efficacy: ○
[2]; [12]
  Cell count CFU/carrier average: <10 CFU/carrier
  Cell count CFU/carrier n1: <10 CFU/carrier
  Cell count CFU/carrier n2: <10 CFU/carrier
  Cell count CFU/carrier n3: <10 CFU/carrier
  Log value: <1.0
  Observed bactericidal efficacy: ○
[2]; [13]
  Cell count CFU/carrier average: <10 CFU/carrier
  Cell count CFU/carrier n1: <10 CFU/carrier
  Cell count CFU/carrier n2: <10 CFU/carrier
  Cell count CFU/carrier n3: <10 CFU/carrier
  Log value: <1.0
  Observed bactericidal efficacy: ○
[2]; [14]
  Cell count CFU/carrier average: 4500 CFU/carrier
  Cell count CFU/carrier n1: 3200 CFU/carrier
  Cell count CFU/carrier n2: 1800 CFU/carrier
  Cell count CFU/carrier n3: 8600 CFU/carrier
  Log value: 3.7
[2]; [15]
  Cell count CFU/carrier average: <10 CFU/carrier
  Cell count CFU/carrier n1: <10 CFU/carrier
  Cell count CFU/carrier n2: <10 CFU/carrier
  Cell count CFU/carrier n3: <10 CFU/carrier
  Log value: 1.0
[2]; [16]
  Cell count CFU/carrier average: 32 CFU/carrier
  Cell count CFU/carrier n1: 10 CFU/carrier
  Cell count CFU/carrier n2: 75 CFU/carrier
  Cell count CFU/carrier n3: <10 CFU/carrier
  Log value: 1.5
